Measured values taken from US20230240290A1, “USE OF (Z)-3-HEXENYL ESTERS AND METHOD FOR PROTECTING PLANTS AGAINST PESTS” (UNIVERSITAT POLITÈCNICA DE VALÈNCIA, priority 2020, published 2023).

How the values were obtained:
Tuta absoluta = test: Field (commercial greenhouse) assay, leaflets infested by T. absoluta; assay type: in vivo; details: commercial tomato greenhouse, infested leaflets per plant, 500 dispensers/ha
Procedure: To know the behavior of the dispensers loaded with (Z)-3-hexenyl propionate under real cultivation conditions, four commercial greenhouses for tomato cv Raf located in Xilxes (Castellón province), with a history of problems with T. absoluta contamination at the end of winter, were selected. An experimental design of randomized blocks was carried out where each greenhouse was considered a block with two treatments per block and 4 repetitions per treatment. […]
Twenty plants randomly chosen by repetition were sampled weekly for 11 weeks, beginning 30 Jan. […] First, the number of leaflets infested by T. absoluta per plant was counted. Then the number of N. tenuis (adults and nymphs) throughout the apical third of each plant (leaves, flowers and shoots) was counted. Following the methodology described above, 6 samples were taken from the apical part of each plant per repetition, and these samples were immediately introduced into liquid nitrogen to quantify the expression of the PR1 and PIN2 genes (described in Example 1 and Example 2). The expression of these genes was quantified one day before, 4, and 8 weeks after hanging the dispensers in the greenhouses.

[1] = tested on: SI-PI-I (marker for plant proteinase inhibitors); test: Transcriptional response of SI-PI-I in tomato plants exposed to volatiles (laboratory); assay type: in vivo, Solanum lycopersicum cv. Moneymaker; details: intact tomato plants exposed 24 h; filter paper, 1:10,000 ester:methanol; n=8
Procedure: Moneymaker tomato plants were used. Two weeks after seed germination, the seedlings were individually transplanted into pots (8×8×8 cm). The plants were kept at 25±2° C., with a constant relative humidity of 65%±5% and a 14:10 h (light:dark) photoperiod. Tomato plants that had not received any pesticide treatment at four weeks of age (about 20 cm tall) were used. All volatiles used were obtained from Sigma-Aldrich (St. Louis, Mo., USA). Each volatile was exposed by using a 2×2 cm piece of filter paper on which 10 μl of a solution containing the corresponding volatile at a concentration of 1:10,000 [(Z)-3-hexenyl ester:methanol] was impregnated as an emitting source of the corresponding volatile (Pérez-Hedo, M. et al. Biocontrol, 63: 203-213 (2018)).
To activate a plant, two pieces of filter paper impregnated with the volatile were placed at the bottom of a 30×30×30 cm plastic cage (BugDorm-1 Insect Tents; MegaView Science Co., Ltd, Taichung, Taiwan) into which the plant was introduced. A control treatment was carried out in which the two pieces of filter paper were impregnated with 10 μl of methanol. Eight repetitions per treatment were performed. The plants of the treatments were kept exposed to the volatile without disturbing for 24 hours in separate and isolated climatic chambers to avoid any interference from the volatiles and were kept at 25±2° C., 65±10% RH, and a 14:10 h (L:D) photoperiod. […]
The methodology followed for extracting and quantifying gene expression was described by Pérez-Hedo et al. Journal of Pest Science 3: 543-554 (2015). The primers used were forward primer: 5′-[…]-3′ (SEQ ID NO: 1) and reverse primer: 5′-[…]-3′ (SEQ ID NO: 2) for the quantification of PR1, forward primer: 5′-[…]-3′ (SEQ ID NO: 3) and reverse primer: 5′-[…]-3′ (SEQ ID NO: 4) for SI-PI-I, and forward primer: 5′-[…]-3′ (SEQ ID NO: 5) and reverse primer: 5′-[…]-3′ (SEQ ID NO: 6) for the SI-PI-II gene. […]

CC/C=C\CCOC(=O)CC [(Z)-3-hexenyl propanoate]
Infestation of T. absoluta lower than control (Tuta absoluta): about 58%
Transcriptional response of SI-PI-I compared to the control [1]: significantly overexpressed
